Patent US12213482B2, “Fungicide enhancers effective for treating plants infected with fungal pathogens” (Board of Regents, The University of Texas System, priority 2015, dated 2025)

Assays:
[1] = system: Septoria tritici isolate G3-03; test: Fungicide sensitivity testing by OD in 96 well plates, fungicides plus Enhancer A.I.1; assay type: cell-based
[2] = system: Mycosphaerella graminicola isolate FLU4-02; test: Fungicide sensitivity testing by OD in 96 well plates, epoxiconazole plus enhancers; assay type: cell-based; conditions: Zymoseptoria tritici, Enhancer Concentration 0 μg ml^−1 (epoxiconazole alone; one value per enhancer series)
[3] = Enhancer A.I.1 Concentration 0 μg ml^−1
[4] = Enhancer A.I.1 Concentration 0.003 μg ml^−1
[5] = Enhancer A.I.1 Concentration 0.016 μg ml^−1
[6] = Enhancer A.I.1 Concentration 0.08 μg ml^−1
[7] = Enhancer A.I.1 Concentration 0.4 μg ml^−1
[8] = Enhancer A.I.1 Concentration 2.0 μg ml^−1
[9] = Enhancer A.I.1 Concentration 10 μg ml^−1

## N#Cc1c(Cl)c(Cl)c(Cl)c(C#N)c1Cl [Chlorothalonil]
[1]; [3]
  EC50 of the fungicide: 0.370 µg/mL
[1]; [4]
  EC50 of the fungicide: 0.369 µg/mL
[1]; [5]
  EC50 of the fungicide: 0.357 µg/mL
[1]; [6]
  EC50 of the fungicide: 0.369 µg/mL
[1]; [7]
  EC50 of the fungicide: 0.335 µg/mL
[1]; [8]
  EC50 of the fungicide: 0.36 µg/mL
[1]; [9]
  EC50 of the fungicide: 0.364 µg/mL

## COC(=O)Nc1nc2ccccc2[nH]1 [Carbendazim]
[1]; [3]
  EC50 of the fungicide: >50 µg/mL
[1]; [4]
  EC50 of the fungicide: >50 µg/mL
[1]; [5]
  EC50 of the fungicide: >50 µg/mL
[1]; [6]
  EC50 of the fungicide: >50 µg/mL
[1]; [7]
  EC50 of the fungicide: >50 µg/mL
[1]; [8]
  EC50 of the fungicide: >50 µg/mL
[1]; [9]
  EC50 of the fungicide: >50 µg/mL

## Cc1cc(C2CC2)nc(Nc2ccccc2)n1 [Cyprodinil]
[1]; [3]
  EC50 of the fungicide: 3.055 µg/mL
[1]; [4]
  EC50 of the fungicide: 3.135 µg/mL
[1]; [5]
  EC50 of the fungicide: 2.995 µg/mL
[1]; [6]
  EC50 of the fungicide: 2.838 µg/mL
[1]; [7]
  EC50 of the fungicide: 3.244 µg/mL
[1]; [8]
  EC50 of the fungicide: 4.046 µg/mL
[1]; [9]
  EC50 of the fungicide: 4.220 µg/mL

## CO/C=C(/C(=O)OC)c1ccccc1Oc1cc(Oc2ccccc2C#N)ncn1 [Azoxystrobin]
[1]; [3]
  EC50 of the fungicide: 7.210 µg/mL
[1]; [4]
  EC50 of the fungicide: 7.339 µg/mL
[1]; [5]
  EC50 of the fungicide: 7.071 µg/mL
[1]; [6]
  EC50 of the fungicide: 6.914 µg/mL
[1]; [7]
  EC50 of the fungicide: 6.958 µg/mL
[1]; [8]
  EC50 of the fungicide: 5.157 µg/mL
[1]; [9]
  EC50 of the fungicide: 2.816 µg/mL

## Fc1ccc([C@]2(Cn3cncn3)O[C@H]2c2ccccc2Cl)cc1 (racemic) [Epoxiconazole]
[2]
  EC50: 0.091 µg/mL
[1]; [3]
  EC50 of the fungicide: 0.142 µg/mL
[1]; [4]
  EC50 of the fungicide: 0.142 µg/mL
[1]; [5]
  EC50 of the fungicide: 0.141 µg/mL
[1]; [6]
  EC50 of the fungicide: 0.145 µg/mL
[1]; [7]
  EC50 of the fungicide: 0.06 µg/mL
[1]; [8]
  EC50 of the fungicide: 0.008 µg/mL
[1]; [9]
  EC50 of the fungicide: 0.004 µg/mL
